Data: patent publication US20110288086A1, “POLYCYCLIC QUINAZOLINES, PREPARATION THEREOF, AND USE THEREOF” (priority 2010, published 2011)
Converted amounts (≈) assume the structure as drawn.

How the values were obtained:
[1] = tested on: K562 human chronicity marrow leukemic cells; test: Tumor cell IC50, CCK-8 kit, K562; format: cell-based
Text: (§1) The inhibitory activities of the compounds on tumor cells (IC50) in vitro
(§2) The IC50 (IC50, unit: μg/ml) values of the compounds on Hut78 T-Lymphocytic Leukemia cells, Jurkat E6-1 human T-cell lymphoma, PANC-1 human pancreatic cancer cells, A549 human lung cancer cells, K562 human chronicity marrow leukemic cells, Hep3B2. 1-7 human hepatoma carcinoma cells, MDA-MB-435s human breast carcinoma cells, Colo320 human rectal cancer cells, PC-3 human carcinoma of prostate, and HepG2 human hepatoma carcinoma cells were determined using a CCK-8 kit. Erlotinib hydrochloride was used as the positive control drug.

[2] = tested on: Colo320 human rectal cancer cells; test: Tumor cell IC50, CCK-8 kit, Colo320; format: cell-based; settings: COLO 320
Text: as §1, §2

EGFR tyrosine kinase = EGFR tyrosine kinase (Homo sapiens, UniProt P00533); test: EGFR tyrosine kinase inhibition in vitro (Invitrogen EGFR inhibitor screening kit PV3193)
Text: The inhibitory activities of EGFR tyrosine kinase in vitro
Erlotinib hydrochloride was used as a positive control drug.

aurora kinase B = target: T1, aurora kinase B (Homo sapiens, UniProt Q96GD4); test: Aurora kinase B inhibition in vitro (Invitrogen aurora kinase screening kit PV3174); format: biochemical
T1 construct: purchased Invitrogen PV3174

[3] = tested on: PANC-1 human pancreatic cancer cells; test: Tumor cell inhibition ratio, CCK-8 kit, PANC-1; settings: PANC-1, read-out: Antiproliferative effect (inhibition ratio) PANC-1
Text: (§3) The inhibitory activities of the compounds on tumor cells in vitro

[4] = tested on: PC-3 human carcinoma of prostate; test: Tumor cell IC50, CCK-8 kit, PC-3; format: cell-based; settings: PC-3 cells
Text: as §1, §2

[5] = tested on: PC-3 human carcinoma of prostate; test: Tumor cell inhibition ratio, CCK-8 kit, PC-3; settings: read-out: Antiproliferative effect (inhibition ratio) PC-3
Text: as §3

[6] = tested on: A549 human lung cancer cells; test: Tumor cell IC50, CCK-8 kit, A549; format: cell-based
Text: as §1, §2

[7] = tested on: MDA-MB-435s human breast carcinoma cells; test: Tumor cell inhibition ratio, CCK-8 kit, MDA-MB-435s; settings: read-out: Antiproliferative effect (inhibition ratio) 435s
Text: as §3

[8] = tested on: K562 human chronicity marrow leukemic cells; test: Tumor cell inhibition ratio, CCK-8 kit, K562; settings: K562, read-out: Antiproliferative effect (inhibition ratio) K562
Text: as §3

[9] = tested on: MDA-MB-435s human breast carcinoma cells; test: Tumor cell IC50, CCK-8 kit, MDA-MB-435s; format: cell-based; settings: 435s cells
Text: as §1, §2

[10] = tested on: PANC-1 human pancreatic cancer cells; test: Tumor cell IC50, CCK-8 kit, PANC-1; format: cell-based; settings: PANC-1 cells
Text: as §1, §2

[11] = tested on: Jurkat E6-1 human T-cell lymphoma; test: Tumor cell inhibition ratio, CCK-8 kit, Jurkat E6-1; settings: Jurkat E6.1, read-out: Antiproliferative effect (inhibition ratio) E6-1
Text: as §3

[12] = tested on: Hut78 T-Lymphocytic Leukemia cells; test: Tumor cell inhibition ratio, CCK-8 kit, Hut78; settings: Homo sapiens, HuT78, read-out: Antiproliferative effect (inhibition ratio) Hut-78
Text: as §3

[13] = tested on: Jurkat E6-1 human T-cell lymphoma; test: Tumor cell IC50, CCK-8 kit, Jurkat E6-1; format: cell-based; settings: E6-1 cells
Text: as §1, §2

[14] = tested on: Hut78 T-Lymphocytic Leukemia cells; test: Tumor cell IC50, CCK-8 kit, Hut78; format: cell-based; settings: Homo sapiens, Hut-78 cells
Text: as §1, §2

[15] = tested on: A549 human lung cancer cells; test: Tumor cell inhibition ratio, CCK-8 kit, A549; settings: A549, read-out: Antiproliferative effect (inhibition ratio) A549
Text: as §3

[16] = tested on: Colo320 human rectal cancer cells; test: Tumor cell inhibition ratio, CCK-8 kit, Colo320; settings: COLO 320, read-out: Antiproliferative effect (inhibition ratio) Colo320
Text: as §3

[17] = tested on: Hep3B2.1-7 human hepatoma carcinoma cells; test: Tumor cell inhibition ratio, CCK-8 kit, Hep3B; settings: read-out: Antiproliferative effect (inhibition ratio) Hep3B
Text: as §3

[18] = tested on: Hep3B2. 1-7 human hepatoma carcinoma cells; test: Tumor cell IC50, CCK-8 kit, Hep3B; format: cell-based
Text: as §1, §2

T1 sequence (Q96GD4 whole entry): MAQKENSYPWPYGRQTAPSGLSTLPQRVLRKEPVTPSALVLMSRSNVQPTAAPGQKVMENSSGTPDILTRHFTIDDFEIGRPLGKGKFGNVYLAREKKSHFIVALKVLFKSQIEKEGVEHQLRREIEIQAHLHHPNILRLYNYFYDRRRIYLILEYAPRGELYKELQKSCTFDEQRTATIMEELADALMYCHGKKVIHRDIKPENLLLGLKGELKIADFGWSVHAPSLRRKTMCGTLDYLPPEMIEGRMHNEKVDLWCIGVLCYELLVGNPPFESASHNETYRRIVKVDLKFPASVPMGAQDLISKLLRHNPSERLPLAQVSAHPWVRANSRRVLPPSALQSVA
EGFR tyrosine kinase, sequence (P00533 25-1210): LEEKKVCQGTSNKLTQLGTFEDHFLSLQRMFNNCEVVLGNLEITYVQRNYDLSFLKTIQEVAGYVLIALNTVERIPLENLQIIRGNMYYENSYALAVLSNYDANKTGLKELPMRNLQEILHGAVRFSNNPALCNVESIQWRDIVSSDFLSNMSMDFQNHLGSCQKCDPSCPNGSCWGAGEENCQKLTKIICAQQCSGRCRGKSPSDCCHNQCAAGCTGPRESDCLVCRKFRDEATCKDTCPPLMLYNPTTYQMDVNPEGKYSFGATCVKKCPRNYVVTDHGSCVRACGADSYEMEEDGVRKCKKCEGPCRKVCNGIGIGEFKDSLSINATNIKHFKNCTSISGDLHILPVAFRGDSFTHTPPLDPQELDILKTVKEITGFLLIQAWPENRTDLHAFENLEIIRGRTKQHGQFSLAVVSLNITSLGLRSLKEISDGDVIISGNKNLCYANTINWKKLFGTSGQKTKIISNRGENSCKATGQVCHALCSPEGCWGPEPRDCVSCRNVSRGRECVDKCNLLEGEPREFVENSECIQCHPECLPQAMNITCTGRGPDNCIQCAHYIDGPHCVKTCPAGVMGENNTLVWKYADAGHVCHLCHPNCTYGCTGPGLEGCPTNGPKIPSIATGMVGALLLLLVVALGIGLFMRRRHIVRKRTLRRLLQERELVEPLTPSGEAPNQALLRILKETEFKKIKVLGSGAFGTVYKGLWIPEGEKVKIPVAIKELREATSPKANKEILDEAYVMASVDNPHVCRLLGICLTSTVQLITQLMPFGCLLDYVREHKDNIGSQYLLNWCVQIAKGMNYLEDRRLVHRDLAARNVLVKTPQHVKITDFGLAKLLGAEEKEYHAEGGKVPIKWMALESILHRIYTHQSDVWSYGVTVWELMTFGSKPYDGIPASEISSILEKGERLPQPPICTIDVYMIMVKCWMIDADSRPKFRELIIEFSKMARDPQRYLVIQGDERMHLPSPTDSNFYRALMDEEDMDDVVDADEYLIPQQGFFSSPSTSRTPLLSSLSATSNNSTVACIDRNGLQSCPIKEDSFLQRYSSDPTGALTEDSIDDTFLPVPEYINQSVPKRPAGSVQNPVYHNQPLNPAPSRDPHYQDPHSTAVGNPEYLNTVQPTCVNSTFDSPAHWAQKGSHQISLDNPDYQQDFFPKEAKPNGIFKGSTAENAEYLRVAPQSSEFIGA

Row | Structure (SMILES) | IC50 [1] [mg/L] | IC50 [2] [mg/L] | The inhibition ratio of the compound on EGFR(%) (EGFR tyrosine kinase; 40 μM) | The inhibition ratio of the compound on EGFR(%) (EGFR tyrosine kinase; 200 μM) | The inhibition ratio of the compound on Aurora B(%) (aurora kinase B; 40 μM) | The inhibition ratio of the compound on Aurora B(%) (aurora kinase B; 200 μM) | inhibition at 10 µM [3] [%] | inhibition at 100 µM [3] [%] | IC50 [4] [mg/L] | inhibition at 10 µM [5] [%] | inhibition at 100 µM [5] [%] | IC50 [6] [mg/L] | inhibition at 10 µM [7] [%] | inhibition at 100 µM [7] [%] | inhibition at 10 µM [8] [%] | inhibition at 100 µM [8] [%] | IC50 [9] [mg/L] | IC50 [10] [mg/L] | inhibition at 10 µM [11] [%] | inhibition at 100 µM [11] [%] | also measured
1 | Br.COCCOc1cc2c(cc1OCCOC)C1=Nc3cccc(N)c3CN1C=N2 [Compound V-6, 9-amino-2,3-bis(2-methoxyethoxy)-8H-quinazolino[4,3-b]quinazoline hydrobromide trihydrate] | 46.4 | 29.8 | 55.2 | 93.8 | 48.5 | 93.8 | 64.2 | 98.6 | 33 | 53.4 | 84.4 | 3.68 | 50.4 | 87 | 64.1 | 82.8 | 33.5 | 16.8 | 61.1 | 95.3 | inhibition at 10 µM [12]: 69%; inhibition at 100 µM [12]: 91.9%; IC50 [13]: 30.5 mg/L; IC50 [14]: 58.8 mg/L; inhibition at 10 µM [15]: 63%; inhibition at 100 µM [15]: 97.3%; inhibition at 10 µM [16]: 73.5%; inhibition at 100 µM [16]: 99.2%; inhibition at 10 µM [17]: 51.3%; inhibition at 100 µM [17]: 84.7%; IC50 [18]: 15.6 mg/L
2 | COCCOc1cc2c(cc1OCCOC)C1=Nc3cccc(O)c3CN1C=N2 [Compound V-8, 9-hydroxy-2,3-bis(2-methoxyethoxy)-8H-quinazolino[4,3-b]quinazoline] | 63.1 (≈ 159 µM) | 29.8 (≈ 74.9 µM) | 52.3 | 95.6 | 32.3 | 96.4 | 41.5 | 89.8 | 9.9 (≈ 24.9 µM) | 45.2 | 94 | 30 (≈ 75.5 µM) | 55 | 93.7 | 52.4 | 92.2 | 27.6 (≈ 69.5 µM) | 21.2 (≈ 53.3 µM) | 44 | 85.4 | inhibition at 10 µM [12]: 35.6%; inhibition at 100 µM [12]: 75.9%; IC50 [13]: 8.11 mg/L (≈ 20.4 µM); IC50 [14]: 53.1 mg/L (≈ 134 µM); inhibition at 10 µM [15]: 52.8%; inhibition at 100 µM [15]: 80%; inhibition at 10 µM [16]: 64.5%; inhibition at 100 µM [16]: 94.8%; inhibition at 10 µM [17]: 52.4%; inhibition at 100 µM [17]: 87.3%; IC50 [18]: 33.1 mg/L (≈ 83.4 µM)
3 | COCCOc1cc2c(cc1OCCOC)C1=Nc3cccc(NC(C)=O)c3CN1C=N2 [Compound V-11, N-{2,3-bis(2-methoxyethoxy)-8H-quinazolino[4,3-b]quinazoline}acetamide] | 40.6 (≈ 92.6 µM) | 34.6 (≈ 78.8 µM) | 56.4 | 85.6 | 53.5 | 96.7 | 57.9 | 91.3 | 36.8 (≈ 83.9 µM) | 55.1 | 89.7 | 4.64 (≈ 10.6 µM) | 41 | 89.5 | 50.5 | 86 | 6.79 (≈ 15.5 µM) | 6.72 (≈ 15.3 µM) | 41.6 | 90.8 | inhibition at 10 µM [12]: 31%; inhibition at 100 µM [12]: 72.8%; IC50 [13]: 39.9 mg/L (≈ 90.9 µM); IC50 [14]: 26.8 mg/L (≈ 61.1 µM); inhibition at 10 µM [15]: 63.1%; inhibition at 100 µM [15]: 99.2%; inhibition at 10 µM [16]: 41.6%; inhibition at 100 µM [16]: 96.3%; inhibition at 10 µM [17]: 57.1%; inhibition at 100 µM [17]: 82.8%; IC50 [18]: 26.1 mg/L (≈ 59.5 µM)
